Measured values reported in patent publication US10517889B2, “Modulators of SMAD7 expression” (Ionis Pharmaceuticals, Inc., priority 2017, dated 2019).
Strand notation (5' to 3'): a small letter for the sugar, then the base; units joined by * are phosphorothioate-linked, units joined directly phosphodiester-linked; [ ] holds rarer units or linkages, { } end groups; capitals alone tell only the bases. k = constrained ethyl (cEt); [5mC] = 5-methylcytosine; d = 2'-deoxy (DNA)

Test system: human SMAD7 mRNA
Experiment: Antisense inhibition of human SMAD7 mRNA expression in Hep3B cells by 3-10-3 cEt gapmers, 10,000 nM, electroporation (Example 2)
Assay type: cell-based
Settings: Hep3B cells, 10,000 nM antisense oligonucleotide, electroporation, approximately 24 hours, RT-PCR primer probe set RTS5062, relative to untreated control cells
Summary of the method: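 Hep3B, 20,000 cells/well; electroporation, 10,000 nM ASO; ~24 h. Readout: SMAD7 mRNA by qRT-PCR (RTS5062), RIBOGREEN-normalised; % inhibition vs untreated.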

Substance	% Inhibition
800011 (k[5mC]*kT*kT*d[5mC]*dA*dG*d[5mC]*d[5mC]*dT*dG*dT*dG*dT*kT*kT*kG; antisense) [compound 800011]	21%
800012 (kG*kA*kG*dG*dA*d[5mC]*dT*dT*d[5mC]*dA*dG*d[5mC]*d[5mC]*kT*kG*kT; antisense) [compound 800012]	49%
800013 (kA*kA*kA*dG*dG*dA*dG*dA*dG*dG*dA*d[5mC]*dT*kT*k[5mC]*kA; antisense) [compound 800013]	56%
800014 (kT*kA*kA*dA*dG*d[5mC]*dA*dT*dA*dA*dA*dA*dT*k[5mC]*k[5mC]*kT; antisense) [compound 800014]	21%
800015 (k[5mC]*kT*kT*dT*dA*dA*dG*dG*dT*dG*dT*dT*dG*k[5mC]*k[5mC]*k[5mC]; antisense) [compound 800015]	26%
800016 (kG*kT*kT*d[5mC]*dA*dT*dT*dT*dT*dA*dA*dA*dG*k[5mC]*kA*kT; antisense) [compound 800016]	32%
800017 (kT*kA*kA*dA*dA*d[5mC]*dA*dG*dT*dA*dT*dG*dT*kG*kT*kT; antisense) [compound 800017]	11%
800018 (kA*kA*kA*dA*d[5mC]*dT*d[5mC]*dA*d[5mC]*dA*dG*dT*d[5mC]*k[5mC]*kT*kT; antisense) [compound 800018]	51%
800029 (k[5mC]*k[5mC]*kT*dG*dA*dA*dT*d[5mC]*dG*dG*dG*d[5mC]*d[5mC]*k[5mC]*kA*k[5mC]; antisense) [compound 800029]	0%
800030 (kA*kA*kA*d[5mC]*dA*d[5mC]*dA*dG*dT*dT*d[5mC]*d[5mC]*d[5mC]*kT*kG*kA; antisense) [compound 800030]	0%
800032 (kG*kA*kA*dT*dT*d[5mC]*d[5mC]*d[5mC]*d[5mC]*dG*d[5mC]*d[5mC]*dA*kT*kT*kT; antisense) [compound 800032]	0%
800033 (k[5mC]*kA*k[5mC]*dT*dA*d[5mC]*dA*dG*dA*dG*dA*dT*dT*k[5mC]*k[5mC]*k[5mC]; antisense) [compound 800033]	52%
800034 (k[5mC]*k[5mC]*kG*d[5mC]*dA*d[5mC]*dG*dA*d[5mC]*dA*dT*d[5mC]*d[5mC]*k[5mC]*k[5mC]*k[5mC]; antisense) [compound 800034]	47%
800035 (k[5mC]*kA*kA*dA*dG*dG*d[5mC]*d[5mC]*d[5mC]*d[5mC]*dT*d[5mC]*dG*kA*kA*k[5mC]; antisense) [compound 800035]	34%
800036 (kG*kT*kT*dA*dG*dG*dA*d[5mC]*dA*dG*d[5mC]*dT*d[5mC]*k[5mC]*kA*kG; antisense) [compound 800036]	38%
800037 (k[5mC]*kA*k[5mC]*d[5mC]*dA*dG*d[5mC]*dA*dG*d[5mC]*d[5mC]*dT*d[5mC]*kT*kG*kT; antisense) [compound 800037]	0%
800038 (kT*kG*k[5mC]*dT*d[5mC]*d[5mC]*dT*d[5mC]*d[5mC]*d[5mC]*dT*d[5mC]*dG*k[5mC]*kT*kG; antisense) [compound 800038]	2%
800049 (antisense kA*kA*k[5mC]*dA*dA*dA*d[5mC]*d[5mC]*dT*dG*dG*d[5mC]*d[5mC]*kT*kG*kG) [compound 800049]	7%
800050 (antisense kG*k[5mC]*kT*dT*dA*dT*dT*dT*dT*d[5mC]*d[5mC]*d[5mC]*dA*kA*kT*kT) [compound 800050]	10%
800051 (antisense k[5mC]*kA*kG*d[5mC]*dA*d[5mC]*dA*dT*d[5mC]*d[5mC]*dA*d[5mC]*d[5mC]*k[5mC]*kT*kT) [compound 800051]	20%
800052 (antisense k[5mC]*k[5mC]*k[5mC]*dT*d[5mC]*dT*dT*d[5mC]*d[5mC]*dG*dG*dG*dA*kG*kG*k[5mC]) [compound 800052]	0%
800053 (antisense k[5mC]*kT*kA*d[5mC]*dA*d[5mC]*d[5mC]*dA*dA*dA*dG*dA*d[5mC]*k[5mC]*kT*kG) [compound 800053]	63%
800054 (antisense kG*k[5mC]*kT*dA*d[5mC]*dA*d[5mC]*d[5mC]*dA*dA*dA*dG*dA*k[5mC]*k[5mC]*kT) [compound 800054]	62%
800055 (antisense kA*kT*kA*dA*dA*d[5mC]*dT*dT*dG*dT*dG*dA*dG*k[5mC]*kG*k[5mC]) [compound 800055]	8%
800056 (antisense kT*kG*k[5mC]*dT*dA*dA*dT*dA*dA*dA*d[5mC]*dT*dT*kG*kT*kG) [compound 800056]	7%
800057 (antisense kT*kT*k[5mC]*dA*d[5mC]*dT*dT*dG*dT*dT*dT*d[5mC]*dT*kG*k[5mC]*kA) [compound 800057]	46%
800058 (antisense kT*k[5mC]*kA*dT*d[5mC]*dA*dG*dG*d[5mC]*dA*dT*dT*d[5mC]*kA*k[5mC]*kT) [compound 800058]	51%

Same assay, conditions: Hep3B cells, electroporation with 10,000 nM antisense oligonucleotide, approximately 24 hours, SMAD7 mRNA by RT-PCR (RTS5062), relative to untreated control cells

Substance	% Inhibition
800006 (k[5mC]*kA*kA*dG*dG*dA*dA*dT*dT*dT*dT*d[5mC]*d[5mC]*k[5mC]*k[5mC]*kT; antisense) [compound 800006]	41%
800007 (k[5mC]*kT*k[5mC]*dA*dA*dG*dG*d[5mC]*d[5mC]*dA*d[5mC]*dA*dT*kT*kT*kT; antisense) [compound 800007]	23%
800008 (kG*kA*kA*d[5mC]*dA*dG*dA*d[5mC]*d[5mC]*dA*dG*dA*d[5mC]*k[5mC]*k[5mC]*kT; antisense) [compound 800008]	40%
800009 (kT*kG*k[5mC]*dT*d[5mC]*dA*dT*dG*dA*dA*dT*dG*dA*kA*k[5mC]*kA; antisense) [compound 800009]	51%
800019 (kG*kG*k[5mC]*dA*dA*dA*dA*d[5mC]*dT*d[5mC]*dA*d[5mC]*dA*kG*kT*k[5mC]; antisense) [compound 800019]	61%
800020 (kA*kA*k[5mC]*d[5mC]*dT*d[5mC]*dT*dG*dA*dA*dG*dG*d[5mC]*kA*kA*kA; antisense) [compound 800020]	21%
800021 (kG*kG*k[5mC]*d[5mC]*dT*d[5mC]*dT*d[5mC]*dG*d[5mC]*dT*dG*dA*kT*kA*kG; antisense) [compound 800021]	0%
800022 (kG*kG*kA*dA*dG*dA*dG*d[5mC]*d[5mC]*dT*dT*dG*dG*k[5mC]*k[5mC]*kT; antisense) [compound 800022]	30%
800023 (kA*kG*kG*dA*dA*dG*dA*dG*d[5mC]*d[5mC]*dT*dT*dG*kG*k[5mC]*k[5mC]; antisense) [compound 800023]	0%
800024 (k[5mC]*kA*kA*dG*dG*dA*d[5mC]*dT*dA*dA*dG*dG*dA*kA*kG*kA; antisense) [compound 800024]	18%
800026 (kT*k[5mC]*kA*dG*dT*dA*d[5mC]*dA*dA*dG*dG*dA*d[5mC]*kT*kA*kA; antisense) [compound 800026]	50%
800027 (k[5mC]*kG*k[5mC]*dT*dT*dT*dG*d[5mC]*dT*d[5mC]*d[5mC]*d[5mC]*dA*kG*kG*kG; antisense) [compound 800027]	0%
800028 (k[5mC]*kA*k[5mC]*dA*dG*d[5mC]*d[5mC]*d[5mC]*dA*d[5mC]*dA*d[5mC]*dG*kA*kG*kT; antisense) [compound 800028]	10%
800039 (kG*kG*kT*dT*dA*dA*dT*dG*dG*d[5mC]*d[5mC]*d[5mC]*dA*kG*k[5mC]*k[5mC]; antisense) [compound 800039]	27%
800040 (k[5mC]*kG*k[5mC]*d[5mC]*dA*dG*d[5mC]*dA*dA*dT*dG*dT*dG*k[5mC]*kT*kG; antisense) [compound 800040]	15%
800041 (kG*k[5mC]*k[5mC]*dA*d[5mC]*d[5mC]*dT*dA*dG*dG*d[5mC]*dA*dA*kG*kG*kG; antisense) [compound 800041]	0%
800042 (kT*kG*kT*d[5mC]*dA*dG*d[5mC]*d[5mC]*dA*d[5mC]*d[5mC]*dT*dA*kG*kG*k[5mC]; antisense) [compound 800042]	0%
800043 (kT*kG*k[5mC]*d[5mC]*dA*dG*dG*d[5mC]*d[5mC]*dT*dG*dT*d[5mC]*kA*kG*k[5mC]; antisense) [compound 800043]	31%
800044 (k[5mC]*k[5mC]*kT*dG*dA*dG*dA*dT*d[5mC]*dG*dA*dG*dG*kT*kG*k[5mC]; antisense) [compound 800044]	18%
800045 (kG*kA*kG*dG*dA*dG*d[5mC]*dA*dA*dG*dG*dG*dA*kG*kT*kG; antisense) [compound 800045]	59%
800046 (kG*kG*k[5mC]*d[5mC]*dA*dA*d[5mC]*dA*dG*dG*dA*dG*dG*kA*kG*kG; antisense) [compound 800046]	42%
800047 (antisense kA*k[5mC]*k[5mC]*d[5mC]*dA*d[5mC]*dT*dG*dA*dA*dA*d[5mC]*d[5mC]*kT*kG*kG) [compound 800047]	28%
800059 (antisense kA*kA*kA*dA*d[5mC]*dA*dA*dG*dA*d[5mC]*dA*dG*dG*kG*kA*k[5mC]) [compound 800059]	31%
800060 (antisense k[5mC]*k[5mC]*k[5mC]*d[5mC]*dA*dA*dA*dA*dG*d[5mC]*dT*d[5mC]*d[5mC]*kA*k[5mC]*kA) [compound 800060]	5%
800061 (antisense k[5mC]*k[5mC]*k[5mC]*dA*dA*dA*dT*dG*d[5mC]*d[5mC]*dT*dG*d[5mC]*k[5mC]*k[5mC]*k[5mC]) [compound 800061]	44%
